Source: the kinase profiling compilation of Christmann-Franck et al. (2016)

Experiments:
Assay in all cases: Caliper, Mobility shift assay off-chip
DYRK4 (human) = DYRK4 (human) (UniProt Q9NR20)
MERTK (human) = MERTK (human) (UniProt Q12866)
CHEK2 (human) = CHEK2 (human) (UniProt O96017)
PTK2B (human) = PTK2B (human) (UniProt Q14289)
MARK2 (human) = MARK2 (human) (UniProt Q7KZI7)
CAMK2B (human) = CAMK2B (human) (UniProt Q13554)
ABL2 (human) = ABL2 (human) (UniProt P42684)
ROCK1 (human) = ROCK1 (human) (UniProt Q13464)
MAPK1 (human) = MAPK1 (human) (UniProt P28482)
Sequence of MAPK1 (human) (P28482 whole entry, looked up): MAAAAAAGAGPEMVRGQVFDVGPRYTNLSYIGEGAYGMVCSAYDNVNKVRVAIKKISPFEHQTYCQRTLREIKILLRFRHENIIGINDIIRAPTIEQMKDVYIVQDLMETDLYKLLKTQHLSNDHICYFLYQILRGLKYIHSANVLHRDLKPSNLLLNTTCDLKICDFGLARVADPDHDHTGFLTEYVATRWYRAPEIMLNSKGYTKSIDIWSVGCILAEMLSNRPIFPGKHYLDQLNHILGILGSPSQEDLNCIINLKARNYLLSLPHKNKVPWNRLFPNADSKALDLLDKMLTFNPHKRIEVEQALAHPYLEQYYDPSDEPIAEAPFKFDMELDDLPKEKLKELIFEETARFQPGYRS

STK3 (human) = STK3 (human) (UniProt Q13188)
EPHB1 (human) = EPHB1 (human) (UniProt P54762)
Sequence of EPHB1 (human) (P54762 whole entry, looked up): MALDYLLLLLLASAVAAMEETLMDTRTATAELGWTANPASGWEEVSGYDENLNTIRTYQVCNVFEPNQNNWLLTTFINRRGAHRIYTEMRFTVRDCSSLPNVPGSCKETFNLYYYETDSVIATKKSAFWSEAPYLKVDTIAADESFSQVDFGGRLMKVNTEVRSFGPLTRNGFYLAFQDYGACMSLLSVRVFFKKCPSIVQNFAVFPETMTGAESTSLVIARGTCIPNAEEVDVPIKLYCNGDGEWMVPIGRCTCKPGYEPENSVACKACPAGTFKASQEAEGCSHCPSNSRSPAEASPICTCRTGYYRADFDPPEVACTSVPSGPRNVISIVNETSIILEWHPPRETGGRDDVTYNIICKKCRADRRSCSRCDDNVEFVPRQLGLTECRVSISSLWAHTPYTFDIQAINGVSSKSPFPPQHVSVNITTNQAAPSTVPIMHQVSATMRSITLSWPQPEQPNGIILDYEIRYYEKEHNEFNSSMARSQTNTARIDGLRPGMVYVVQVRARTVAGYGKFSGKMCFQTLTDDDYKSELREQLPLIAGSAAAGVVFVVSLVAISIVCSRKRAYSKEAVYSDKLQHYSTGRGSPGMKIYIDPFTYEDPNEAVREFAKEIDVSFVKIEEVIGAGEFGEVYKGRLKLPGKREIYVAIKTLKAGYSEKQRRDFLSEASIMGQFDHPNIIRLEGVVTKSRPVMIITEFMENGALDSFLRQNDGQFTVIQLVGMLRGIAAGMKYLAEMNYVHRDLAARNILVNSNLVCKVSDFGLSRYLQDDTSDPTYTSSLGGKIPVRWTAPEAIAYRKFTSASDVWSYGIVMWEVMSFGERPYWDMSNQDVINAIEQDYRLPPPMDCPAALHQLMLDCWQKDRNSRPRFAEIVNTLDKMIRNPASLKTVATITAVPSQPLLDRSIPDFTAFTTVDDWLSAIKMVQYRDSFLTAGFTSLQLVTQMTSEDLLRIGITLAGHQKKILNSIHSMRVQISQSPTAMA

RPS6KA2 KD1 KD2 (human) = RPS6KA2 KD1 KD2 (human) (UniProt Q15349)
FGFR3 (human) = FGFR3 (human) (UniProt P22607)
Sequence of FGFR3 (human) (P22607 whole entry, looked up): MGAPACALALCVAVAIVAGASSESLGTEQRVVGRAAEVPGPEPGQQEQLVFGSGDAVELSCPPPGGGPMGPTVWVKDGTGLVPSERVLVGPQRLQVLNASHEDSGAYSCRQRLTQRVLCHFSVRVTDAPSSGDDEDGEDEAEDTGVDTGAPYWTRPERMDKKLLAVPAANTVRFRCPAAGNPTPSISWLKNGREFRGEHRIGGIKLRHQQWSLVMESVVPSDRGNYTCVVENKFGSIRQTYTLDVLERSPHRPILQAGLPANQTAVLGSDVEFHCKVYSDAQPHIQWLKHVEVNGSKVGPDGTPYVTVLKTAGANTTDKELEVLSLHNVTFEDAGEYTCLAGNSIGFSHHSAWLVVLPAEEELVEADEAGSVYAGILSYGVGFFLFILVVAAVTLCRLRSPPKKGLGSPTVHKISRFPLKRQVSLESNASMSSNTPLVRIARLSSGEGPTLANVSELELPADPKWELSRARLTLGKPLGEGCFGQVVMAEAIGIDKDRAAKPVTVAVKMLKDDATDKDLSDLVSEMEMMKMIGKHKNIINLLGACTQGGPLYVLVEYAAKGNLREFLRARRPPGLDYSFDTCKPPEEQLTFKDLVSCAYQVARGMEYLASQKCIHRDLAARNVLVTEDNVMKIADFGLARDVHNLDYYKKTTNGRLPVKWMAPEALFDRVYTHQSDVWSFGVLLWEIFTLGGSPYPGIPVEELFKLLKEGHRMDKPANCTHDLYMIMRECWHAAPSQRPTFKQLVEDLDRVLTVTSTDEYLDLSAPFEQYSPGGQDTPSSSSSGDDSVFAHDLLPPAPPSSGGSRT

PIM2 (human) = PIM2 (human) (UniProt Q9P1W9)
PRKD3 (human) = PRKD3 (human) (UniProt O94806)
AKT1 (human) = AKT1 (human) (UniProt P31749)
Sequence of AKT1 (human) (P31749 whole entry, looked up): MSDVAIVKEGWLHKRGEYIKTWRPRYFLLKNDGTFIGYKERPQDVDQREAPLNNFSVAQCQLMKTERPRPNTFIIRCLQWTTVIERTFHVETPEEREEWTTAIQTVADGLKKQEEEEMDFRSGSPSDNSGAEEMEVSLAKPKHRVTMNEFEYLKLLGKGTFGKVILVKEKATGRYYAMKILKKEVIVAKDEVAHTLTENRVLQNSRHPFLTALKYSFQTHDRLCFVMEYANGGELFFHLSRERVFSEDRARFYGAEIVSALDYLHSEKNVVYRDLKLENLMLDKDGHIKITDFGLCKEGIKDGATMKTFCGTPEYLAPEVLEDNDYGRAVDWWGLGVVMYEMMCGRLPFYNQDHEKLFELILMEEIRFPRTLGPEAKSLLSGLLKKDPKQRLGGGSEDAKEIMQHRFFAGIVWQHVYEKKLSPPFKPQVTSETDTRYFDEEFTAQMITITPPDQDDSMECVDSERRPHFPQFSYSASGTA

AKT2 (human) = AKT2 (human) (UniProt P31751)
MAPK12 (human) = MAPK12 (human) (UniProt P53778)
Sequence of MAPK12 (human) (P53778 whole entry, looked up): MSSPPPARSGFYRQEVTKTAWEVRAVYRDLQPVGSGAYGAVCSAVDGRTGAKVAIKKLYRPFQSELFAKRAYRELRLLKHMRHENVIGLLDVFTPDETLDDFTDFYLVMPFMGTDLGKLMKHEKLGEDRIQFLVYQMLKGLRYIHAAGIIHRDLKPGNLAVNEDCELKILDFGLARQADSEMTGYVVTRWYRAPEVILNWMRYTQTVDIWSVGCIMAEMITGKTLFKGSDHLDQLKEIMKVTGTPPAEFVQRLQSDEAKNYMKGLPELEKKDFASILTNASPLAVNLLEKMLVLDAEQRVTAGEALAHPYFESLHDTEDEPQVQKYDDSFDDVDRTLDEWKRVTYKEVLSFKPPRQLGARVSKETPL

DCLK2 (human) = DCLK2 (human) (UniProt Q8N568)
LYN (human) = LYN (human) (UniProt P07948)
[1] = test system: FLT3 (human), P36888 [D835Y]
CDK5 CDK5R1 p25 (human) = CDK5 CDK5R1 p25 (human) (UniProt Q15078+Q00535)
FLT3 (human) = FLT3 (human) (UniProt P36888)
MAPKAPK5 (human) = MAPKAPK5 (human) (UniProt Q8IW41)
Sequence of MAPKAPK5 (human) (Q8IW41 whole entry, looked up): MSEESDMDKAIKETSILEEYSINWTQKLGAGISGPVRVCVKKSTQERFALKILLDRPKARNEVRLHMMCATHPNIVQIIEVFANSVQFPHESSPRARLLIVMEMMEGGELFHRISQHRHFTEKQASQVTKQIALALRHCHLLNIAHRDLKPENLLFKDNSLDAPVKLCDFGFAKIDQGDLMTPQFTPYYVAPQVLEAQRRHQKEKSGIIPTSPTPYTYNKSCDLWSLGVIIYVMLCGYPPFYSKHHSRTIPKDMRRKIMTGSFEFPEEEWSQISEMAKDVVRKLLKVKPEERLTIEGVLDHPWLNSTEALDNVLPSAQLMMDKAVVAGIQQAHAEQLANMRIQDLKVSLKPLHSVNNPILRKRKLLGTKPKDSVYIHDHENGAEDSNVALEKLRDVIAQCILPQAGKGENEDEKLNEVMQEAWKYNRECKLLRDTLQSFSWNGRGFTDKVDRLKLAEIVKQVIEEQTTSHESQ

AURKC (human) = AURKC (human) (UniProt Q9UQB9)
JAK2 JH1 JH2 (human) = JAK2 JH1 JH2 (human) (UniProt O60674)
PRKCD (human) = PRKCD (human) (UniProt Q05655)
Sequence of PRKCD (human) (Q05655 whole entry, looked up): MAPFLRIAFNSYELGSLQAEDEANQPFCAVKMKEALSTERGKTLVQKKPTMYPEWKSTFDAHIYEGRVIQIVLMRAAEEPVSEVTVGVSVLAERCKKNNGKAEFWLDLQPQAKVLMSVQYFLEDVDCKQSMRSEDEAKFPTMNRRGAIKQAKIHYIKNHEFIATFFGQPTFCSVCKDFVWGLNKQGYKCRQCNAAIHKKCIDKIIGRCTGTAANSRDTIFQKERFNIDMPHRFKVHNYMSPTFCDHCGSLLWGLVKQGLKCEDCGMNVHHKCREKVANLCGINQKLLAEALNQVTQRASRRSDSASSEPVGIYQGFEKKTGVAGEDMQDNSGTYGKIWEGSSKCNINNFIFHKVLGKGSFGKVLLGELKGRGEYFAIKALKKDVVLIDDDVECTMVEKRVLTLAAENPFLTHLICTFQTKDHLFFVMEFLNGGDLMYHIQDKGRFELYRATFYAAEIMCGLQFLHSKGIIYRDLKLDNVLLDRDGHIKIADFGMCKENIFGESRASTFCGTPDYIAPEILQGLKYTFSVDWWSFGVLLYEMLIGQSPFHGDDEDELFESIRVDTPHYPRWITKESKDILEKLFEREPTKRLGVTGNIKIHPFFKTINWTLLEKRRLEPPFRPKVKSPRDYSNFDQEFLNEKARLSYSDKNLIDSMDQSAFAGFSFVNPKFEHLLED

MAPK13 (human) = MAPK13 (human) (UniProt O15264)
CAMK2D (human) = CAMK2D (human) (UniProt Q13557)
MAPKAPK3 (human) = MAPKAPK3 (human) (UniProt Q16644)
CDK1 (human) = CDK1 (human) (UniProt P06493)
ALK (human) = ALK (human) (UniProt Q9UM73)
CDK2 (human) = CDK2 (human) (UniProt P24941)

Sequence of CAMK2B (human) (Q13554 whole entry, looked up): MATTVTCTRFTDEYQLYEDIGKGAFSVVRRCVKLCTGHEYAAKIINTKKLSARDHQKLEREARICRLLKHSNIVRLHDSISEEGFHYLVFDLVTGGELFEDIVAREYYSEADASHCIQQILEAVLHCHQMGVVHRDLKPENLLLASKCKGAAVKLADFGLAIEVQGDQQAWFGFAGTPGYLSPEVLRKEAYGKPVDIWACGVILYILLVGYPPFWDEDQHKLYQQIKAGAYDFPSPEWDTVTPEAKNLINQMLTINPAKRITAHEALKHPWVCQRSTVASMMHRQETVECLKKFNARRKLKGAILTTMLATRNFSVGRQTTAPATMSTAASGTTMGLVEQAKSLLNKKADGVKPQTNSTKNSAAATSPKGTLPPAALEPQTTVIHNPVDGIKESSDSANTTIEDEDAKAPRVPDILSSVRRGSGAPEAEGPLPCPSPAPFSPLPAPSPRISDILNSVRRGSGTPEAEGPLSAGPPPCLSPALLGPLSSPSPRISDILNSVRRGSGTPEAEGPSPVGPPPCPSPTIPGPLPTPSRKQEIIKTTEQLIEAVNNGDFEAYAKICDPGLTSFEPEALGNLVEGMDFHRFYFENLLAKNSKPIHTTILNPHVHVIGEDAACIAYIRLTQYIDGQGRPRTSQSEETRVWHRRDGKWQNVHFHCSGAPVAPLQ

Q: What does the source list for `Cn1cc(-c2cnc3ccc4ccc(CS(=O)(=O)NC5CCCCC5)cc4c(=O)c3c2)cn1`?
A: inhibition (DYRK4 (human); compound 0.01 µM): 8.3%; inhibition (DYRK4 (human); compound 0.1 µM): 12.1%; inhibition (MERTK (human); compound 0.01 µM): 11%; inhibition (MERTK (human); compound 0.1 µM): 9.5%; inhibition (CHEK2 (human); compound 0.01 µM): -2.6%; inhibition (CHEK2 (human); compound 0.1 µM): -7.4%; inhibition (PTK2B (human); compound 0.01 µM): -1%; inhibition (PTK2B (human); compound 0.1 µM): 6.8%; inhibition (MARK2 (human); compound 0.01 µM): -2.5%; inhibition (MARK2 (human); compound 0.1 µM): -1.4%; inhibition (CAMK2B (human); compound 0.01 µM): 4.4%; inhibition (CAMK2B (human); compound 0.1 µM): -5.2%; inhibition (ABL2 (human); compound 0.01 µM): -2.4%; inhibition (ABL2 (human); compound 0.1 µM): -4.3%; inhibition (ROCK1 (human); compound 0.01 µM): 3.1%; inhibition (ROCK1 (human); compound 0.1 µM): 4%; inhibition (MAPK1 (human); compound 0.01 µM): -10.5%; inhibition (MAPK1 (human); compound 0.1 µM): -4.8%; inhibition (STK3 (human); compound 0.01 µM): 7.9%; inhibition (STK3 (human); compound 0.1 µM): 17.7%; inhibition (EPHB1 (human); compound 0.01 µM): 5.1%; inhibition (EPHB1 (human); compound 0.1 µM): -8%; inhibition (RPS6KA2 KD1 KD2 (human); compound 0.01 µM): 6.7%; inhibition (RPS6KA2 KD1 KD2 (human); compound 0.1 µM): 10.4%; inhibition (FGFR3 (human); compound 0.01 µM): -4%; inhibition (FGFR3 (human); compound 0.1 µM): 7.8%; inhibition (PIM2 (human); compound 0.01 µM): -11%; inhibition (PIM2 (human); compound 0.1 µM): 4.3%; inhibition (PRKD3 (human); compound 0.01 µM): -2.4%; inhibition (PRKD3 (human); compound 0.1 µM): 10.4%; inhibition (AKT1 (human); compound 0.01 µM): 0.8%; inhibition (AKT1 (human); compound 0.1 µM): 7.4%; inhibition (AKT2 (human); compound 0.01 µM): -1.3%; inhibition (AKT2 (human); compound 0.1 µM): 2%; inhibition (MAPK12 (human); compound 0.01 µM): 2%; inhibition (MAPK12 (human); compound 0.1 µM): 5.1%; inhibition (DCLK2 (human); compound 0.01 µM): 1.7%; inhibition (DCLK2 (human); compound 0.1 µM): 7.8%; inhibition (LYN (human); compound 0.01 µM): 9.1%; inhibition (LYN (human); compound 0.1 µM): 3.6%; inhibition ([1]; compound 0.01 µM): -3%; inhibition ([1]; compound 0.1 µM): 6.8%; inhibition (CDK5 CDK5R1 p25 (human); compound 0.01 µM): 8.4%; inhibition (CDK5 CDK5R1 p25 (human); compound 0.1 µM): -2%; inhibition (FLT3 (human); compound 0.01 µM): -1%; inhibition (FLT3 (human); compound 0.1 µM): -2.3%; inhibition (MAPKAPK5 (human); compound 0.01 µM): -2.5%; inhibition (MAPKAPK5 (human); compound 0.1 µM): 6.9%; inhibition (AURKC (human); compound 0.01 µM): -1.6%; inhibition (AURKC (human); compound 0.1 µM): 15.4%; inhibition (JAK2 JH1 JH2 (human); compound 0.01 µM): 8.9%; inhibition (JAK2 JH1 JH2 (human); compound 0.1 µM): 11.9%; inhibition (PRKCD (human); compound 0.01 µM): -8.7%; inhibition (PRKCD (human); compound 0.1 µM): 8.3%; inhibition (MAPK13 (human); compound 0.01 µM): -5.2%; inhibition (MAPK13 (human); compound 0.1 µM): -3%; inhibition (CAMK2D (human); compound 0.01 µM): 2.4%; inhibition (CAMK2D (human); compound 0.1 µM): -6.5%; inhibition (MAPKAPK3 (human); compound 0.01 µM): -8%; inhibition (MAPKAPK3 (human); compound 0.1 µM): 4.1%; inhibition (CDK1 (human); compound 0.01 µM): -5.7%; inhibition (CDK1 (human); compound 0.1 µM): 1.6%; inhibition (ALK (human); compound 0.01 µM): 17.8%; inhibition (ALK (human); compound 0.1 µM): -2%; inhibition (CDK2 (human); compound 0.01 µM): -2.1%; inhibition (CDK2 (human); compound 0.1 µM): 11.7%

Q: With `O=C(CCc1ccc2ccc3ncc(C4CCNCC4)cc3c(=O)c2c1)NCc1ccccn1` as the compound, how does the inhibition (DYRK4 (human); compound 0.1 µM) read?
A: 1.8%

Q: And the inhibition (DYRK4 (human); compound 1.0 µM)?
A: 0.5%

Q: What about the inhibition (MERTK (human); compound 0.1 µM) of the same compound?
A: 2.5%

Q: What about the inhibition (MERTK (human); compound 1.0 µM) of the same compound?
A: 15.5%

Q: And the inhibition (CHEK2 (human); compound 0.1 µM)?
A: 4.2%

Q: What about the inhibition (CHEK2 (human); compound 1.0 µM) of the same compound?
A: 1.2%

Q: What about the inhibition (PTK2B (human); compound 0.1 µM) of the same compound?
A: 10%

Q: And the inhibition (PTK2B (human); compound 1.0 µM)?
A: 2.5%

Q: And the inhibition (MARK2 (human); compound 0.1 µM)?
A: -4.6%

Q: And the inhibition (MARK2 (human); compound 1.0 µM)?
A: -1.8%

Q: What about the inhibition (CAMK2B (human); compound 0.1 µM) of the same compound?
A: -1.6%

Q: What about the inhibition (CAMK2B (human); compound 1.0 µM) of the same compound?
A: 0.8%

Q: And the inhibition (ABL2 (human); compound 0.1 µM)?
A: 2.6%

Q: What about the inhibition (ABL2 (human); compound 1.0 µM) of the same compound?
A: -3.4%

Q: What about the inhibition (ROCK1 (human); compound 0.1 µM) of the same compound?
A: 4.2%

Q: And the inhibition (ROCK1 (human); compound 1.0 µM)?
A: 8.2%

Q: And the inhibition (MAPK1 (human); compound 0.1 µM)?
A: -1.2%

Q: And the inhibition (MAPK1 (human); compound 1.0 µM)?
A: 3.7%

Q: And the inhibition (STK3 (human); compound 0.1 µM)?
A: 1.9%

Q: What about the inhibition (STK3 (human); compound 1.0 µM) of the same compound?
A: 4.5%

Q: And the inhibition (EPHB1 (human); compound 0.1 µM)?
A: 1%

Q: What about the inhibition (EPHB1 (human); compound 1.0 µM) of the same compound?
A: 3.3%

Q: And the inhibition (RPS6KA2 KD1 KD2 (human); compound 0.1 µM)?
A: -4.2%

Q: What about the inhibition (RPS6KA2 KD1 KD2 (human); compound 1.0 µM) of the same compound?
A: -2.5%

Q: What about the inhibition (FGFR3 (human); compound 0.1 µM) of the same compound?
A: 0.5%

Q: And the inhibition (FGFR3 (human); compound 1.0 µM)?
A: 4.9%

Q: What about the inhibition (PIM2 (human); compound 0.1 µM) of the same compound?
A: -0.1%

Q: What about the inhibition (PIM2 (human); compound 1.0 µM) of the same compound?
A: -3.2%

Q: What about the inhibition (PRKD3 (human); compound 0.1 µM) of the same compound?
A: -21.2%

Q: What about the inhibition (PRKD3 (human); compound 1.0 µM) of the same compound?
A: 2.2%

Q: What about the inhibition (AKT1 (human); compound 0.1 µM) of the same compound?
A: -7.2%

Q: And the inhibition (AKT1 (human); compound 1.0 µM)?
A: 1.7%

Q: What about the inhibition (AKT2 (human); compound 0.1 µM) of the same compound?
A: -1.5%

Q: What about the inhibition (AKT2 (human); compound 1.0 µM) of the same compound?
A: 3.1%

Q: What about the inhibition (MAPK12 (human); compound 0.1 µM) of the same compound?
A: 6.1%

Q: And the inhibition (MAPK12 (human); compound 1.0 µM)?
A: 8.3%

Q: What about the inhibition (DCLK2 (human); compound 0.1 µM) of the same compound?
A: 2%

Q: And the inhibition (DCLK2 (human); compound 1.0 µM)?
A: 5.8%

Q: What about the inhibition (LYN (human); compound 0.1 µM) of the same compound?
A: 3.5%

Q: And the inhibition (LYN (human); compound 1.0 µM)?
A: -3.2%

Q: What about the inhibition ([1]; compound 0.1 µM) of the same compound?
A: -1%

Q: What about the inhibition ([1]; compound 1.0 µM) of the same compound?
A: 3.4%

Q: And the inhibition (CDK5 CDK5R1 p25 (human); compound 0.1 µM)?
A: 2.2%

Q: What about the inhibition (CDK5 CDK5R1 p25 (human); compound 1.0 µM) of the same compound?
A: 0.3%

Q: What about the inhibition (FLT3 (human); compound 0.1 µM) of the same compound?
A: -5.8%

Q: And the inhibition (FLT3 (human); compound 1.0 µM)?
A: -4%

Q: What about the inhibition (MAPKAPK5 (human); compound 0.1 µM) of the same compound?
A: -4.3%

Q: And the inhibition (MAPKAPK5 (human); compound 1.0 µM)?
A: 2.9%

Q: What about the inhibition (AURKC (human); compound 0.1 µM) of the same compound?
A: 7.5%

Q: And the inhibition (AURKC (human); compound 1.0 µM)?
A: 18.6%

Q: And the inhibition (JAK2 JH1 JH2 (human); compound 0.1 µM)?
A: -2.8%

Q: And the inhibition (JAK2 JH1 JH2 (human); compound 1.0 µM)?
A: 5.9%

Q: What about the inhibition (PRKCD (human); compound 0.1 µM) of the same compound?
A: 0.7%

Q: And the inhibition (PRKCD (human); compound 1.0 µM)?
A: -5.4%

Q: And the inhibition (MAPK13 (human); compound 0.1 µM)?
A: -1.8%

Q: And the inhibition (MAPK13 (human); compound 1.0 µM)?
A: 3.9%

Q: What about the inhibition (CAMK2D (human); compound 0.1 µM) of the same compound?
A: -22.5%

Q: And the inhibition (CAMK2D (human); compound 1.0 µM)?
A: -4.6%

Q: What about the inhibition (MAPKAPK3 (human); compound 0.1 µM) of the same compound?
A: -0.3%

Q: What about the inhibition (MAPKAPK3 (human); compound 1.0 µM) of the same compound?
A: 0.5%

Q: What about the inhibition (CDK1 (human); compound 0.1 µM) of the same compound?
A: -3.9%

Q: What about the inhibition (CDK1 (human); compound 1.0 µM) of the same compound?
A: 1.2%

Q: What about the inhibition (ALK (human); compound 0.1 µM) of the same compound?
A: 6.9%

Q: What about the inhibition (ALK (human); compound 1.0 µM) of the same compound?
A: -9.5%

Q: What about the inhibition (CDK2 (human); compound 0.1 µM) of the same compound?
A: -10%

Q: What about the inhibition (CDK2 (human); compound 1.0 µM) of the same compound?
A: -6.6%
